In patent publication US9512108B2, “9,9,10,10-Tetrafluoro-9,10-dihydrophenanthrene hepatitis C virus inhibitor and application thereof” (NANJING SANHOME PHARMACEUTICAL CO., LTD., priority 2013, dated 2016) one finds EC50 and CC50 data, which are given here for two molecules.

One may read the EC50 as the concentration giving half of the maximal effect.

Common to all, as to format: cell-based
The subject of series [1] is HCV genotype 1b replicon. The experiment in a line: Anti-HCV-1b replicon activity (luciferase, Bright-Glo). Particulars: Hepatitis C virus, Huh-7, 72 h, read-out: EC50 against HCV-1b replicon. The method, then: (§1) Each of the compounds prepared in the above examples of the present invention was dissolved at 10 mM in DMSO, then diluted to 50 μM with DMEM complete medium, then diluted to 20 nM with complete medium containing 0.5% DMSO, and then serially diluted by 3-fold, to obtain a total of 10 concentrations.
(§2) HCV 1b replicon cells, i.e., Huh7 cell line stably transfected with HCV genotype 1b replicon, were provided by WuXi AppTec (Shanghai) Co., Ltd. Specific preparation methods of Huh7 lb replicon cell system can be found in Lohmann V, Korner F, Koch J, Herian U, Theilmann L, Bartenschlager R., Replication of subgenomic hepatitis C virus RNAs in a hepatoma cell line, Science 285 (5424): 110-113 (1999).
(§3) 1) Preparation of compounds: adding 75 μl of the compounds of the present invention at the above concentration gradient to a 96-well plate using POD810 system, with each concentration for each compound in duplicate;
(§4) 2) Preparation of cells: collecting HCV 1b replicon cells in logarithmic phase and resuspending them in DMEM complete medium, and then adding 75 μl of the cell suspension to each well of the above 96-well plate (8×10^3 cells/well); at the same time, establishing zero percent effect (ZPE) control group and hundred percent effect (HPE) control group, with ZPE group using complete culture medium containing 0.5% DMSO instead of the compound, and the HPE group merely containing DMEM medium in the wells.
(§5) 3) Cell culture: placing the 96-well plate in a 37° C., 5% CO2 incubator and culturing for 3 days.
(§6) 5) Anti-HCV replicon activity assay: adding luciferase luminescence substrate Bright-Glo to each well, and detecting luminescence signal values using the multimode microplate reader within 5 min, with the raw data (RLU) being used for calculation of the anti-HCV activities of the compounds;
(§7) 6) Data processing: processing the raw data using the following formula into the inhibition percentage of the compound against HCV replicon (Inhibition %) and the percentage of cell viability (Viability %): Inhibition %=(RLUZPE−RLUCPD)/(RLUZPE−RLUHPE)×100 Viability %=(RFUCPD−RFUHPE)/(RFUZPE−RFUHPE)×100 wherein CPD: the fluorescence signal value of the well of the compound; ZPE (zero percent effect): the fluorescence signal value of the zero percent effect control; HPE (hundred percent effect): the fluorescence signal value of the hundred percent effect control.
(§8) The Inhibition % and Viability % were introduced into GraphPad Prism software for data processing, respectively, to obtain the half effective concentration EC50 of the compound against HCV replicon and the half cytotoxic concentration CC50.
On the technique in general: Replicon systems follow genome replication, usually without infectious particles.

Series [2] can be described thus: Cell viability test (CellTiter-Fluor) in HCV 1b replicon cells. Particulars: human, Huh7 cells stably transfected with HCV genotype 1b replicon; HCV 1b replicon Huh7 cells, 3 days culture; read-out: CC50 (half cytotoxic concentration). The method, then: as §1, §2, §3, §4, §5
(§9) 4) Cell viability test: after adding detection reagent for fluorescence assay of cell growth to each well and culturing the cells in a 37° C., 5% CO2 incubator for one hour, detecting the fluorescence signal values using the multimode microplate reader, with the raw data (RFU) being used for calculation of the cytotoxicity of the compounds;
as §7, §8

Series [3] relates to HCV genotype 1a replicon. The experiment in a line: Anti-HCV-1a replicon activity (luciferase, Bright-Glo). Particulars: Hepatitis C virus, Huh-7, 72 h, read-out: EC50 against HCV-1a replicon. As to the method:
as §3, §4, §5, §6, §7, §8
(§10) HCV 1a replicon cells, i.e., Huh7 cell line stably transfected with HCV genotype 1a replicon (provided by WuXi AppTec (Shanghai) Co., Ltd.) were used as the experimental cells. As described above for the HCV 1b replicon cell system, the HCV genotype 1a replicon cell systems were similarly prepared.
(§11) The anti-HCV-1a activities of the compounds of the present invention were tested according to the method for testing the anti-HCV-1b replicon activity in Experimental Example 1.

A short description of series [4]: Cell viability test (CellTiter-Fluor) in HCV 1a replicon cells. Conditions: human, Huh7 cells stably transfected with HCV genotype 1a replicon; HCV 1a replicon Huh7 cells, 3 days culture; read-out: CC50 (half cytotoxic concentration). The method, then: as §9, §7, §8, §10, §11

With `COC(=O)N[C@H](C(=O)N1CC2(C[C@H]1c1ncc(-c3ccc4c(c3)C(F)(F)C(F)(F)c3cc(-c5cnc([C@@H]6CC7(CN6C(=O)[C@@H](NC(=O)OC)C(C)C)OCCO7)[nH]5)ccc3-4)[nH]1)OCCO2)C(C)C` [Example 17, Dimethyl ((2S,2′S)-((2S,2′S)-2,2′-(5,5′-(9,9,10,10-tetrafluoro-9,10-dihydrophenanthren-2,7-diyl)bis(1H-imidazol-5,2-diyl))bis(1,4-dioxa-7-azaspiro[4.4]nonan-7,8-diyl))bis(3-methyl-1-oxobutan-2,1-diyl))dicarbamate], the EC50 is 0.007 nM in series [1] and 0.175 nM in series [3]. Moreover, the CC50 at 3 days in series [2] and in series [4] was greater than 10 nM each time.
For `COC(=O)N[C@H](C(=O)N1CC2(C[C@H]1c1ncc(-c3ccc4c(c3)C(F)(F)C(F)(F)c3cc(-c5ccc6nc([C@@H]7CCCN7C(=O)[C@@H](NC(=O)OC)C(C)C)[nH]c6c5)ccc3-4)[nH]1)OCCO2)C(C)C` [Example 11, Methyl N-((2S)-1-((S)-2-(6-(7-((S)-2-(7-((S)-2-((methoxycarbonyl)amino)-3-methylbutanoyl)-1,4-dioxa-7-azaspiro[4.4]nonan-8-yl)-1H-imidazol-5-yl)-9,9,10,10-tetrafluoro-9,10-dihydrophenanthren-2-yl)-1H-benzo[d]imidazol-2-yl)pyrrolidin-1-yl)-3-methyl-1-oxobutan-2-yl)carbamate], the EC50 in series [1] came to 0.006 nM; in series [3] it was 0.079 nM. Moreover, the CC50 at 3 days in series [2] and in series [4] was greater than 10 nM throughout.
